Consider three compounds from patent US20150231109A1, “COMBINATIONS (CATECHINS AND METHOTREXATE) FOR USE IN THE TREATMENT OF MELANOMAS” (UNIVERSIDAD DE MURCIA, priority 2012, published 2015).

Data set [1] deals with low passage patient-derived melanoma cells bearing MEK and BRAF mutations. The experiment in a line: MTT assay on low passage patient-derived melanoma cell lines with BRAF and MEK1 or MEK2 mutations. The class given is cell-based, human. Conditions: BRAF-inhibitor and MEK-inhibitor resistant lines; MTX/TMECG 1 μM/10 μM, PLX-4720 1 μM.
Experimental: G, MTT assay indicating effects of MTX/TMECG (1 μM/10 μM) and PLX-4720 (1 μM) treatment on low passage patient-derived melanoma cells bearing indicated MEK and BRAF mutations. Cells were treated with vehicle only (•), PLX-4720 ( ), or with a combination of MTX+TMECG (Δ). Note the number of cells at the start of the experiment was at the limit of detection. […] Error bars show mean±SD.
MTX/TMECG was tested against two low passage melanoma cell lines (fewer than 10 passages) derived from patients with activating BRAF mutations that are resistant to both BRAF-inhibitor and MEK-inhibitor therapy, owing to the presence of activating mutations in MEK1 or MEK2 (Nikolaev et al., 2011). In the MTT assays (FIGS. 2G and 5A) a low starting number of cells (2×10^3) was used, so that any proliferation could be readily visualized.
Cell viability was evaluated using the 3-(4,5-dimethylthiazol-2-yl)-2,5-diphenyltetrazolium bromide (MTT) cell proliferation assay.
The test system of a further data set is SK-MEL-28 melanoma cells. Description: HPLC/MS analyses of MTX, TMECG-QM and DHF in whole cell extracts. Type of data set: cell-based, human. To be noted: SK-MEL-28 whole cell extracts, 24 h, MTX 1 μM and/or TMECG 10 μM; control 3.8 ± 1.1. Here is the method: By way of example, the present inventors have shown that an active agent, such as MTX, may be used to increase TYR expression, thereby increasing the conversion of a catechin to its quinone methide form. The inventors have undertaken HPLC analyses of MTX, TMECG-QM, and DHF in whole cell extracts of SK-MEL-28 melanoma cells that were subjected to MTX (1 μM) and TMECG (10 μM) individual and combined treatments (see Table 1).

The nature of data set [2]: Pharmacokinetic studies in mice plasma. The class given is in vivo. To be noted: mouse, ip, male C57BL/6 mice, intra-peritoneal TMECG 50 mg/kg alone or with MTX 50 mg/kg. The protocol:
Pharmacokinetic studies were performed in male C57BL/6 mice after intra-peritoneal injection of MTX (50 mg/kg) and/or TMECG (50 mg/kg). Animals were anesthetized with CO2, and whole blood samples (˜0.5 mL) were collected via cardiac puncture. Samples for drug quantification were collected from different animals (in triplicate) at 5, 15, and 30 min and at 1, 2, 4, and 6 hr post-dose. Whole blood samples were transferred to lithium heparin blood collection tubes, and then centrifuged at 10,000 rpm for 10 min at 4° C. After plasma deproteinization with 5% trichloroacetic acid (TCA), MTX and TMECG plasma concentrations were calculated by HPLC. Pharmacokinetic parameters were estimated using the WinNonlin software package (WinNonlin Professional version 5.1., Pharsight Corporation, CA). WinNonlin model 200 was used for the non-compartmental analysis of the concentration-time data. The area under the plasma concentration-time curve (AUClast) from time 0 to the last point (tlast) with measurable concentration (Clast) was estimated using a linear trapezoidal approximation (AUClast). The elimination half-life (t1/2) was calculated as ln2/kel, where kel (elimination rate constant) was estimated using least squares regression analysis of the concentration-time data obtained during the terminal log-linear elimination phase. The maximum plasma concentrations (Cmax) were estimated directly from the data, with tmax being defined as the time of the first occurrence of Cmax.

A further data set relates to B16/F10 melanoma cells. The experiment in a line: Subcutaneous B16/F10 melanoma model in C57BL/6 mice. Type of data set: in vivo, mouse. To be noted: compared to untreated mice. The protocol:
FIGS. 4A-N. MTX and TMECG combination therapy is effective in vivo. A, A375 melanoma cells were included in a human reconstructed skin model and were treated with MTX (1 μM) and/or TMECG (10 μM) for 14 days. B, B16/F10 melanoma cells were injected subcutaneously into C57/B16 mice. Images show tumor size 17 days post-injection in control and treated mice. […] C, Luciferase imaging of control and MTX/TMECG-treated mice 12 days post-tumor cell injection. Beetle luciferin (120 mg/kg of mouse) was injected intraperitoneally. The values (means±s.d.) are representative of three independent experiments. *P=0.007; **P=0.002. […] E, Quantification of macrometastases (0-10, 10-25 or >25) after treatment with vehicle (control), MTX (1 mg/kg/day), and/or TMECG (50 mg/kg/day). […] B16/F10 cells extracted from tumors were examined for their sensitivity to the MTX/TMECG combination (1 μM and 10 μM, respectively) using quantification of the luminescence signal (left panel). […]
Animals were bred and maintained according to the Spanish legislation on the ‘Protection of Animals used for Experimental and other Scientific Purposes’ and in accordance with the directives of the European community. […] Primary spleen tumors and hepatic metastases at 12 and 14 days, respectively, were analyzed using the IVIS Imaging System (Caliper Life Sciences). […]

Data set [3] is described as follows: Toxicology in non-tumor inoculated C57BL/6 mice. Type of data set: in vivo, mouse. The protocol: FIGS. 4A-N. MTX and TMECG combination therapy is effective in vivo. A, A375 melanoma cells were included in a human reconstructed skin model and were treated with MTX (1 μM) and/or TMECG (10 μM) for 14 days. B, B16/F10 melanoma cells were injected subcutaneously into C57/B16 mice. Images show tumor size 17 days post-injection in control and treated mice. […] C, Luciferase imaging of control and MTX/TMECG-treated mice 12 days post-tumor cell injection. Beetle luciferin (120 mg/kg of mouse) was injected intraperitoneally. The values (means±s.d.) are representative of three independent experiments. *P=0.007; **P=0.002. D, Bioluminescent imaging of livers at 14 days post-intrasplenic injection of B16-F10-luc-G5 cells from untreated and MTX/TMECG-treated mice are shown. E, Quantification of macrometastases (0-10, 10-25 or >25) after treatment with vehicle (control), MTX (1 mg/kg/day), and/or TMECG (50 mg/kg/day). F, Photomicrograph of H&E-stained, 4 μm formalin-fixed, paraffin-embedded liver sections from control (DMSO) and MTX/TMECG-treated mice (1 and 50 mg/kg/day, respectively) (5× magnification). G, MTX activation of MITF and tyrosinase activates the melanoma-specific antifolate activity of TMECG, leading to depletion of cellular dTTP and apoptosis. H, Sections stained with hematoxylin and eosin show the effect of MTX/TMECG on B16/F10 primary splenic tumors. Xenograft tumors treated with DMSO (vehicle) or MTX/TMECG (1 mg/kg/day and 50 mg/kg/day, respectively) over 14-days. […] Representative images taken from two independent experiments (n=5 for each experiment). Scale bar=200 μm and is applicable to both panels. I, B16/F10 melanoma cells, expressing a luciferase reporter, were injected subcutaneously to mice. Mice were divided in two groups (n=7) and treated with vehicle (DMSO) or MTX/TMECG (1 mg/kg/day and 10 mg/kg/day, respectively) over 21-days. Then, tumors were pooled and dissociated. B16/F10 cells extracted from tumors were examined for their sensitivity to the MTX/TMECG combination (1 μM and 10 μM, respectively) using quantification of the luminescence signal (left panel). J, The histogram represents the number of B16/F10-luc2 cells remaining after 3 days of MTX/TMECG treatment with respect to vehicle treated controls (100%). […] K, The morphology of tumor dissociated B16/F10-luc2 cells before and after of MTX/TMECG treatment. Scale bar refers to all panels. L, Histograms represent the number of copies of TYR mRNA for every 1×10^3 copies of β-actin±SD of three independent experiments. […]
To explore the toxicity of TMECG and MTX, these agents (at indicated concentrations) were administrated intradermally to the back of non-tumor inoculated female C57BL/6 mice (n=10), and body weight monitored every other day. […]

In data set [4] the test system is B16/F10 primary splenic tumors. The experiment in a line: Primary spleen tumors after intrasplenic injection of luciferase-tagged B16/F10 cells. Type of data set: in vivo, mouse.
Experimental: C, Luciferase imaging of control and MTX/TMECG-treated mice 12 days post-tumor cell injection. Beetle luciferin (120 mg/kg of mouse) was injected intraperitoneally. The values (means±s.d.) are representative of three independent experiments. *P=0.007; **P=0.002. […] Xenograft tumors treated with DMSO (vehicle) or MTX/TMECG (1 mg/kg/day and 50 mg/kg/day, respectively) over 14-days. […] Representative images taken from two independent experiments (n=5 for each experiment). Scale bar=200 μm and is applicable to both panels. I, B16/F10 melanoma cells, expressing a luciferase reporter, were injected subcutaneously to mice. Mice were divided in two groups (n=7) and treated with vehicle (DMSO) or MTX/TMECG (1 mg/kg/day and 10 mg/kg/day, respectively) over 21-days. Then, tumors were pooled and dissociated. B16/F10 cells extracted from tumors were examined for their sensitivity to the MTX/TMECG combination (1 μM and 10 μM, respectively) using quantification of the luminescence signal (left panel). […] Scale bar refers to all panels. […] Mice were treated with vehicle, MTX (1 mg/kg/day), and/or TMECG (50 mg/kg/day). […] Scale bar refers to all panels.
A, Luciferase imaging of vehicle (control), MTX, and/or TMECG-treated mice 12 days post-tumor cell injection. Firefly luciferin (120 mg/kg of mouse) was injected intraperitoneally. The values are representative of three independent experiments. […] The number of cells was estimated by extrapolation of the experimental luciferase signal to calibration curves. A straight line with a good linear correlation coefficient (0.998) was obtained by plotting luciferase signal vs number of B16/F10-luc2 cells. Treatment of mice (n=6) started 24 hr after tumor induction (Day 1). For all experiments: *p<0.05 with respect to control mice; #p<0.05 with respect to individual MTX or TMECG treatments.
The target in data set [5] is 5-cytosine DNA methyltransferase-1 (Homo sapiens, UniProt P26358). The experiment in a line: Inhibition of 5-cytosine DNA methyltransferase-1. Type of data set: biochemical. To be noted: data not shown.
5-cytosine DNA methyltransferase-1, sequence (P26358 whole entry): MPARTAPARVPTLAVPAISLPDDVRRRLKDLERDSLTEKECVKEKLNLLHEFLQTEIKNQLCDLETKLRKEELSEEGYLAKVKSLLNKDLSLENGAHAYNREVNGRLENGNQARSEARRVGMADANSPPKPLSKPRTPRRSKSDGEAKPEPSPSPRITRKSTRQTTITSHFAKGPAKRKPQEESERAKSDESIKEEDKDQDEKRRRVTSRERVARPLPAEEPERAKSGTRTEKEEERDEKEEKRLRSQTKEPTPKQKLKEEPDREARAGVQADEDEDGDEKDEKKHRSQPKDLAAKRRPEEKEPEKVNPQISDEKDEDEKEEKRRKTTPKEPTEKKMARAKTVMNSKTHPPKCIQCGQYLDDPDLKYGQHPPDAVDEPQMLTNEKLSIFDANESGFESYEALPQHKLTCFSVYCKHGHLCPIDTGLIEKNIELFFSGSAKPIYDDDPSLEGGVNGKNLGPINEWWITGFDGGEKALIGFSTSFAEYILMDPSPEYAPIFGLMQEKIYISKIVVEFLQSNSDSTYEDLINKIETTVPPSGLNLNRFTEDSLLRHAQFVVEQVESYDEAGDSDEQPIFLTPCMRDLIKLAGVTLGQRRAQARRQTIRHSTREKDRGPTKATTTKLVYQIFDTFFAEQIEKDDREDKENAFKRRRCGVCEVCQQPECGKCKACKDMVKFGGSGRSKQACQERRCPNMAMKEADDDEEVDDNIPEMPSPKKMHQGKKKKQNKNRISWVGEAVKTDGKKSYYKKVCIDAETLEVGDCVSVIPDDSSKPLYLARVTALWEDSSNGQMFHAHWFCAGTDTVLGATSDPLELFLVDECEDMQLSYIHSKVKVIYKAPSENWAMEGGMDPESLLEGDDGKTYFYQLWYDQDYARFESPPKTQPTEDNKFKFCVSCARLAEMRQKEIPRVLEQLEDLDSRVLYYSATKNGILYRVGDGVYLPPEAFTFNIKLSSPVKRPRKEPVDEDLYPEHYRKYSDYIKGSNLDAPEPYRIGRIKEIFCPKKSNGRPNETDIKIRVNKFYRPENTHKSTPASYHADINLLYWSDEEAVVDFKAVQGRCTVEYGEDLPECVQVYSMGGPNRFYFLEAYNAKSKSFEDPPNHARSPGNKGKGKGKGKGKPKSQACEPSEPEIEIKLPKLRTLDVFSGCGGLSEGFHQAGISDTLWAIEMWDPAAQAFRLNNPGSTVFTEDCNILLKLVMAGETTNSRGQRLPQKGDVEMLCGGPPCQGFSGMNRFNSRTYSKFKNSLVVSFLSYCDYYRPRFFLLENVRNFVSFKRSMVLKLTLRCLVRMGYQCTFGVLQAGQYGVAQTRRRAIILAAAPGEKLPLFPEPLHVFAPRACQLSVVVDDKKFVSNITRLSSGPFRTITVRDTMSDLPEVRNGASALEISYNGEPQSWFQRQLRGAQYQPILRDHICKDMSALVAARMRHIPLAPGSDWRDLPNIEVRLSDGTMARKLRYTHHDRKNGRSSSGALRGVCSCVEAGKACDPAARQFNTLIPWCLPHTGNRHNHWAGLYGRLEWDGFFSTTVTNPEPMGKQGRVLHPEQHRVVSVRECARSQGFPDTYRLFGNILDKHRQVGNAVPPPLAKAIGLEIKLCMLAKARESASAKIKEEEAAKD
Another data set has as its target T1, DHFR (Homo sapiens, UniProt P00374).
T1 sequence (P00374 1-187): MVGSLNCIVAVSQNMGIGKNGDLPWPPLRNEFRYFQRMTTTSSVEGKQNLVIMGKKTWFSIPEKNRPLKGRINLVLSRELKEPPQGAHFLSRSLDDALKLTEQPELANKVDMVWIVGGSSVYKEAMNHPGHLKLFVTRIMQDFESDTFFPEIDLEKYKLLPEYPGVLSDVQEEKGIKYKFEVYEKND
To be noted: Sanchez-del-Campo et al., 2009a; cited from earlier work.

The next data set deals with glutamate dehydrogenase (Homo sapiens, UniProt P00367). Description: Inhibition of glutamate dehydrogenase. To be noted: data not shown. The class given is biochemical.
glutamate dehydrogenase, sequence (P00367 54-558): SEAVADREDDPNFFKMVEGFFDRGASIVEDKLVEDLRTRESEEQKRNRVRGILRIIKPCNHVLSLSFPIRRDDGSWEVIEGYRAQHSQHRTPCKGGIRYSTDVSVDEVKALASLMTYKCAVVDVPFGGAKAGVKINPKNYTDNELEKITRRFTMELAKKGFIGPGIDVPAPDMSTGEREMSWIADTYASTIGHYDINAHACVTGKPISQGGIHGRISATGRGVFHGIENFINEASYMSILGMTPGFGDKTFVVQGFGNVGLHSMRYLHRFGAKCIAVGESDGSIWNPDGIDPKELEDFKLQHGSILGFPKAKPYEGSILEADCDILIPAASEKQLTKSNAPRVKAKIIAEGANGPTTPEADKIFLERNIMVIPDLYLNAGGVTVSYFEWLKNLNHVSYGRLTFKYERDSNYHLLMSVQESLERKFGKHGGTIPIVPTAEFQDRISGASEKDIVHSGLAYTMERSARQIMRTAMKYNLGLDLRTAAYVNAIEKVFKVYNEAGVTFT
The next data set has as its system proteasome. Description: Inhibition of the proteasome. Type of data set: biochemical. Conditions: data not shown.

As for `CCCS(=O)(=O)Nc1ccc(F)c(C(=O)c2c[nH]c3ncc(Cl)cc23)c1F` [PLX-4720], in [1], the “proliferation (MTT)” value is given as “failed to impact significantly on proliferation”.
Consider `COc1cc(C(=O)O[C@@H]2Cc3c(O)cc(O)cc3O[C@@H]2c2ccc(O)c(O)c2)cc(OC)c1OC` [TMECG, 3,4,5-trimethoxy-epicatechin-3-gallate], for which the DHF intracellular concentration in the data set on SK-MEL-28 melanoma cells is listed as 4.8 ± 0.9 pmol/10^6 cells. For the same compound, in [2] (read-out: TMECG Parameters AUC), the AUC is 79100 ng·h/mL. For the same compound, the Cmax in data set [2] (read-out: TMECG Parameters Cmax) was 39300 ng/mL. The Tmax in [2] (read-out: TMECG Parameters Tmax) stood at 5.4 min. The half-life in [2] (read-out: TMECG Parameters t1/2 (converted)) is 107 min. For the same compound, the tumor growth entry in the data set with B16/F10 melanoma cells is “significantly reduced”. For the same compound, the mouse body weight result in [3] (TMECG-treated versus untreated groups) was “not significant”. Moreover, in data set [3] (preliminary observations), the toxicity in vivo result was “not toxic in vivo”. In [4] (14 days treatment, MTX 1 mg/kg/day and/or TMECG 50 mg/kg/day), the “necrotic areas in splenic tumors” value is on record as 11%±3%. In addition, in data set [4] (MTX or TMECG alone, 12 days post-tumor cell injection), the “effect on in vivo luciferase signal” value was “around 2 fold”.
On to `COc1cc(C(=O)O[C@H](Cc2c(O)cc(O)cc2O)C(=O)c2ccc(O)c(O)c2)cc(OC)c1OC` [TMECG-QM], for which the “inhibition of 5-cytosine DNA methyltransferase-1” value in data set [5] is listed as “does not inhibit”. The “inhibition constant for DHFR” value at DHFR is on record as “nanomolar order”. Also, on glutamate dehydrogenase, the “inhibition of glutamate dehydrogenase” value was “does not inhibit”. In addition, in the data set with proteasome, the “inhibition of the proteasome” value is given as “does not inhibit”.
